Data on 23 compounds can be found in ChEMBL document CHEMBL4364273, “Discovery of SHR1653, a Highly Potent and Selective OTR Antagonist with Improved Blood-Brain Barrier Penetration” (ACS Med Chem Lett, 2019).

In series [1] the target is T1, Oxytocin receptor (Homo sapiens, UniProt P30559).
T1 sequence (P30559 whole entry): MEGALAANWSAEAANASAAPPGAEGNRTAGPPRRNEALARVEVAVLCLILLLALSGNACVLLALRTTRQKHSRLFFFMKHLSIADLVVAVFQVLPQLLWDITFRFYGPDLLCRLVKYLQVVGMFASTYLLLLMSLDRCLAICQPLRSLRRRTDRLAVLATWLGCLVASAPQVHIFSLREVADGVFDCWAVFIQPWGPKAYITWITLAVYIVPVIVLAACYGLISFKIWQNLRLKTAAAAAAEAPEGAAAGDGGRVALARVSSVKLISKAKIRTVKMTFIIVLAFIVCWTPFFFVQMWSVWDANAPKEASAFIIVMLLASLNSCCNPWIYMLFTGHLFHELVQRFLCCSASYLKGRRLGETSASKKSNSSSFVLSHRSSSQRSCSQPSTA
The experiment in a line: Antagonist activity at human OTR expressed in HEK293 cells assessed as decrease in calcium flux measured after 10 mins in […] by Fluo-4 dye based microplate reader based assay. In kind it is functional, cell-based.

The nature of series [2]: Half-life in Sprague-Dawley rat at 2 mg/kg, po measured for 24 hrs by LC-MS/MS analysis. The following applies: in vivo. In kind it is ADME, organism-based.
The nature of series [3]: Cmax in Sprague-Dawley rat at 2 mg/kg, po measured for 24 hrs by LC-MS/MS analysis. Type of series: ADME, organism-based. Also on record: dose 2 mg/kg, route oral. The following applies: in vivo.
Series [4] in a line: AUC (0 to 24 hrs) in Sprague-Dawley rat at 2 mg/kg, po by LC-MS/MS analysis. In kind it is ADME, organism-based. Particulars: in vivo. On the set-up: time < 24 hr, dose 2 mg/kg, route oral.
A short description of series [5]: Clearance in Sprague-Dawley rat at 1 mg/kg, iv measured for 24 hrs by LC-MS/MS analysis. Type of series: ADME, organism-based. Particulars: in vivo.
For series [6], the target named is Voltage-gated inwardly rectifying potassium channel KCNH2 (Homo sapiens, UniProt Q12809). As to the kind of experiment: Inhibition of human ERG.
Series [7] has as its target Vasopressin V1a receptor (Homo sapiens, UniProt P37288). As to the kind of experiment: Antagonist activity at human vasopressin V1A receptor expressed in HEK293 cells assessed as decrease in vasopressin-stimulated calcium flux measured after 10 mins by Fluo-4 dye based microplate reader based assay. In kind it is functional, cell-based.
Series [8] in a line: Plasma concentration in Sprague-Dawley rat by LC-MS/MS analysis. Type of series: ADME, cell-free.
The subject of series [9] is Rattus norvegicus. As to the kind of experiment: Anti-premature ejaculation activity in anesthetized oxytocin-induced uterine contraction Sprague-Dawley rat model assessed as decrease in intraluminal uterine pressure at 30 mg/kg, po treated for 20 mins and 1 hr later treated with oxytocin and measured for 15 to 30 mins relative to control. In kind it is functional.
Series [10] is described as follows: Unbound fraction in Sprague-Dawley rat plasma by LC-MS/MS analysis. In kind it is ADME, cell-free.
Series [11] can be described thus: Unbound brain-to-plasma concentration ratio in Sprague-Dawley rat by LC-MS/MS analysis. Type of series: ADME, cell-free. The following applies: read-out: K(p,uu,brain).
Series [12] can be described thus: Drug concentration in Sprague-Dawley rat brain by LC-MS/MS analysis. In kind it is ADME, tissue-based. Particulars: in vivo.
Series [13] is described as follows: AUC (0 to 24 hrs) in anesthetized oxytocin-induced uterine contraction Sprague-Dawley rat model at 30 mg/kg, po. Particulars: in vivo. Also on record: dose 30 mg/kg, time < 24 hr, route oral. In kind it is ADME, organism-based.
Series [14] can be described thus: Unbound fraction in Sprague-Dawley rat brain by LC-MS/MS analysis. In kind it is ADME, tissue-based.
The target in series [15] is T2, Vasopressin V1b receptor (Homo sapiens, UniProt P47901).
T2 sequence (P47901 whole entry): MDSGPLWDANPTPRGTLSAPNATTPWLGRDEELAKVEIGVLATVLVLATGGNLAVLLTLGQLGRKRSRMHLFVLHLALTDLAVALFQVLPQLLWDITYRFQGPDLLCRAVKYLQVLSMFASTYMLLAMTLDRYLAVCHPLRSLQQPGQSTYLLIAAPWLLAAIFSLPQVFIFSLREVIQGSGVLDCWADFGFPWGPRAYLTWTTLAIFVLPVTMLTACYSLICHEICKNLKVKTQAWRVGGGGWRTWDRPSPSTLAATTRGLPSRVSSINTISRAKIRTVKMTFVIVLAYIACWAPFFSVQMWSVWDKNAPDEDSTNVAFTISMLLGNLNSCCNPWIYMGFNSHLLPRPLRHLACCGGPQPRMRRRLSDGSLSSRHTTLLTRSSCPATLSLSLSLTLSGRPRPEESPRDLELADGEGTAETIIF
As to the kind of experiment: Antagonist activity at human vasopressin V1B receptor expressed in HEK293 cells assessed as decrease in vasopressin-stimulated calcium flux measured after 10 mins by Fluo-4 dye based microplate reader based assay. Type of series: functional, cell-based.

Sequence of Vasopressin V1a receptor (P37288 whole entry): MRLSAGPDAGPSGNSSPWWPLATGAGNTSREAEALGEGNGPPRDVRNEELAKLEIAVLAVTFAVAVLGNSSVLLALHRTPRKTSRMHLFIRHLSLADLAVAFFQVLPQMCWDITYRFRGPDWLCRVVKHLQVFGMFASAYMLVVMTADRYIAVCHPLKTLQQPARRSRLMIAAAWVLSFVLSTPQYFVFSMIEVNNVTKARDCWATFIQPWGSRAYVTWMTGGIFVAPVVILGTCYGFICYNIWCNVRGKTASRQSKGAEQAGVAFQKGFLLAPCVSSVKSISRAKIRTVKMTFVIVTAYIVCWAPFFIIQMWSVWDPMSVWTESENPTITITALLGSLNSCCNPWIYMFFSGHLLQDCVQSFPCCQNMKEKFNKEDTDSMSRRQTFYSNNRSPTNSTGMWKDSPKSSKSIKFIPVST
Sequence of Voltage-gated inwardly rectifying potassium channel KCNH2 (Q12809 whole entry): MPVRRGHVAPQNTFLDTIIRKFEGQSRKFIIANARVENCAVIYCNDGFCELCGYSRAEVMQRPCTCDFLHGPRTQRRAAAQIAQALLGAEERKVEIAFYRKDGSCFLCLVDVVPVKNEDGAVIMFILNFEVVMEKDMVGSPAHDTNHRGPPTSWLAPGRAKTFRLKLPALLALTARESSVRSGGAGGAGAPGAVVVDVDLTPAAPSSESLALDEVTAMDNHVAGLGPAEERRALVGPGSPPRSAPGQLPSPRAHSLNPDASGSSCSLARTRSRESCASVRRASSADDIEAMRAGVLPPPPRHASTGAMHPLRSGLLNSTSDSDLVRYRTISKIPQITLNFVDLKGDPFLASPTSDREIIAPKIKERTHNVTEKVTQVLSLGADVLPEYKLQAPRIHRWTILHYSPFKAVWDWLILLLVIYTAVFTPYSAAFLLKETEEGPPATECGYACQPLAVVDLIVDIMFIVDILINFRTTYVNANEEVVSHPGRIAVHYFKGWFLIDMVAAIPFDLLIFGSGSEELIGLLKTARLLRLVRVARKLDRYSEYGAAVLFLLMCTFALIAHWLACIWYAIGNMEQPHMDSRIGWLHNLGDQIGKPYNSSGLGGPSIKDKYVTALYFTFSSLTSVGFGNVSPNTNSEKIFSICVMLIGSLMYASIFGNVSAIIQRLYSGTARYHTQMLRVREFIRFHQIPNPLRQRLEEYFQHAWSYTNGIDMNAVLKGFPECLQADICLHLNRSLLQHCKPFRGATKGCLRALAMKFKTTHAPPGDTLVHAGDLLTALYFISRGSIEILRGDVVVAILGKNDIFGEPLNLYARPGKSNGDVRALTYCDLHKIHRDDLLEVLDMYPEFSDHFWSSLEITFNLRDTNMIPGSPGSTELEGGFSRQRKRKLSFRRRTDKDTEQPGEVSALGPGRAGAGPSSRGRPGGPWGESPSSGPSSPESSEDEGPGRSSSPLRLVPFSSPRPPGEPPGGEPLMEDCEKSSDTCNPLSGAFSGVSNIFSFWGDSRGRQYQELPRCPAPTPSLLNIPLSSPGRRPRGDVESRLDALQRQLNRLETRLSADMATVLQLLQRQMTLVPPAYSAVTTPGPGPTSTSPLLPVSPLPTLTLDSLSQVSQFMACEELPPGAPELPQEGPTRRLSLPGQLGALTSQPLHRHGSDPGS

Regarding `COCc1nnc(N2C[C@H]3C[C@@H](Oc4ccc(F)cc4Cl)C[C@H]3C2)n1-c1ccc(OC)nc1`, in series [1], the IC50 was found to be 1380 nM.
As to `COCc1nnc(N2C[C@@H]3C[C@]3(c3cccc(F)c3Cl)C2)n1-c1ccc(OC)nc1`, the half-life in [2] was 189 min. Besides, the 50% inhibitory concentration (IC50) in [1] worked out at 30 nM. The Cmax in series [3] was 15 ng/mL. In addition, the AUC(0-t) at 24 h in series [4] was found to be 34 ng·h/mL.
In [2], `COCc1nnc(N2CCC(c3ccc(F)cc3Cl)CC2)n1-c1ccc(OC)nc1` showed a half-life of 143 min. Further, the clearance in series [5] is 45 mL/min/kg. Besides, the IC50 in [1] is 10 nM. In series [3], the Cmax was determined as 96 ng/mL. Further, the AUC(0-t) at 24 h in series [4] is 767 ng·h/mL.
For `CCOCc1nnc(N2C[C@@H]3C[C@]3(c3ccc(F)cc3Cl)C2)n1-c1ccc(OC)nc1`, the concentration for half-maximal inhibition (IC50) was 6.1 µM in [6], 1760 nM in series [7] and 9.3 nM in series [1]. In [2], this compound gave a half-life of 209 min. In [5], this compound had a clearance of 17.8 mL/min/kg. In series [3], this compound displayed a maximum concentration (Cmax) of 135 ng/mL. Also, the AUC(0-t) at 24 h in [4] amounted to 1020 ng·h/mL.
`COc1ccc(-n2c(CO[C@H]3CCOC3)nnc2N2C[C@@H]3C[C@]3(c3ccc(F)cc3Cl)C2)cn1`: in series [1], the 50% inhibitory concentration (IC50) was determined as 184 nM.
On the same count and under the same terms, then `COCc1nnc(N2CC3COCC3(c3ccc(F)cc3Cl)C2)n1-c1ccc(OC)nc1` (stereo not given), with 2560 nM.
`COCc1nnc(N2CCC(c3ccc(F)cc3Cl)C2)n1-c1ccc(OC)nc1` (stereo not given) had a half-life in [2] of 113 min. The IC50 in series [1] was found to be 27 nM. The same compound displayed a Cmax in series [3] of 204 ng/mL. Moreover, in [4], the exposure AUC(0-t) at 24 h turned out to be 478 ng·h/mL.
Regarding `COc1ccc(-n2c(COCCF)nnc2N2C[C@@H]3C[C@]3(c3ccc(F)cc3Cl)C2)cn1`, the IC50 in series [7] was found to be 819 nM.
Same read-out and setting: in the case of `COc1ccc(-n2c(C(F)F)nnc2N2C[C@@H]3C[C@]3(c3ccc(F)cc3Cl)C2)cn1` it was 1870 nM.
`COc1ccc(-n2c(COC3CCOCC3)nnc2N2C[C@@H]3C[C@]3(c3ccc(F)cc3Cl)C2)cn1`: in [1], the IC50 came to 826 nM.
Consider `COCc1nnc(N2C3CCC2CC(Oc2ccc(F)cc2Cl)C3)n1-c1ccc(OC)nc1` (stereo not given), for which the concentration for half-maximal inhibition (IC50) in [1] came out at 1230 nM.
Still for that read-out and setting: in the case of `COCc1nnc(N2CC3CN(c4ccc(F)cc4Cl)C3C2)n1-c1ccc(OC)nc1` (stereo not given) it was 121 nM; in that of `COCc1nnc(C2CCN(Cc3ccc(F)cc3Cl)CC2)n1-c1ccc(OC)nc1`, 2790 to 3000 nM.
As for `COc1ccc(-n2c(C3CC3)nnc2N2C[C@@H]3C[C@]3(c3ccc(F)cc3Cl)C2)cn1`, the figures for the IC50 in series [7] and in series [1] were 11000 nM and 433 nM, respectively.
In turn, `COCc1nnc(N2CC(Oc3ccc(F)cc3Cl)C2)n1-c1ccc(OC)nc1` showed a Cp in series [8] of 699 ng/mL. The concentration for half-maximal inhibition (IC50) in series [1] worked out at 23.2 nM. Further, the inhibition in vivo at 30 mg/kg in series [9] was found to be 76.5%. In addition, the fraction unbound in series [10] was found to be 0.0664; in series [14], 0.0165. Also, the Kp uu in [11] was determined as 0.064. Besides, in series [12], the Ct was 179 ng/g. The same compound yielded an AUC(0-t) at 24 h in series [13] of 39500 ng·h/mL.
`COCc1nnc(N2C[C@@H]3C[C@]3(c3ccc(F)cc3Cl)C2)n1-c1ccc2c(c1)OCO2`: the concentration for half-maximal inhibition (IC50) in series [7] is 810 nM.
`COCc1nnc(N2CC3(CCc4cc(F)ccc4O3)C2)n1-c1ccc(OC)nc1`: the IC50 in [1] was determined as 401 nM.
Still for that read-out and setting: then `COCc1nnc(N2CC3CN(c4ccc(F)cc4Cl)CC32)n1-c1ccc(OC)nc1` (stereo not given), with 850 nM.
For the compound `COc1ccc(-n2c(CC#N)nnc2N2C[C@@H]3C[C@]3(c3ccc(F)cc3Cl)C2)cn1`, the results for the IC50 in series [7], in series [1] and in series [15] were 769 nM, 235 nM and 44.4 µM, respectively.
Regarding `COCc1nnc(N2CCN(Cc3ccc(F)cc3Cl)CC2)n1-c1ccc(OC)nc1`, the IC50 in series [1] was 910 nM.
For the compound `COCc1nnc(N2CC3(C2)OCc2cc(F)ccc23)n1-c1ccc(OC)nc1`, the IC50 in series [1] was 6760 nM.
On to `COc1ccc(-n2c(CO[C@@H]3CCOC3)nnc2N2C[C@@H]3C[C@]3(c3ccc(F)cc3Cl)C2)cn1`, for which the values for the IC50 in series [7] and in series [1] were 1980 nM and 223 nM, respectively.
In the case of `CC[C@H](C)[C@@H]1C(=O)N[C@H](C2Cc3ccccc3C2)C(=O)N1[C@@H](C(=O)N1CCOCC1)c1ccc(C)nc1C` [EPELSIBAN], the concentration for half-maximal inhibition (IC50) in series [1] is 9.2 nM.
